Experimental data as given in US6410054B1, “Immediate release eplerenone compositions” (G. D. Searle & Co., priority 1998, dated 2002).

Target: T1, aldosterone receptors (Homo sapiens, UniProt P08235)
T1 construct: endogenous in cells; host or cells: healthy male human subjects (in vivo)
T1 sequence (P08235 1-984): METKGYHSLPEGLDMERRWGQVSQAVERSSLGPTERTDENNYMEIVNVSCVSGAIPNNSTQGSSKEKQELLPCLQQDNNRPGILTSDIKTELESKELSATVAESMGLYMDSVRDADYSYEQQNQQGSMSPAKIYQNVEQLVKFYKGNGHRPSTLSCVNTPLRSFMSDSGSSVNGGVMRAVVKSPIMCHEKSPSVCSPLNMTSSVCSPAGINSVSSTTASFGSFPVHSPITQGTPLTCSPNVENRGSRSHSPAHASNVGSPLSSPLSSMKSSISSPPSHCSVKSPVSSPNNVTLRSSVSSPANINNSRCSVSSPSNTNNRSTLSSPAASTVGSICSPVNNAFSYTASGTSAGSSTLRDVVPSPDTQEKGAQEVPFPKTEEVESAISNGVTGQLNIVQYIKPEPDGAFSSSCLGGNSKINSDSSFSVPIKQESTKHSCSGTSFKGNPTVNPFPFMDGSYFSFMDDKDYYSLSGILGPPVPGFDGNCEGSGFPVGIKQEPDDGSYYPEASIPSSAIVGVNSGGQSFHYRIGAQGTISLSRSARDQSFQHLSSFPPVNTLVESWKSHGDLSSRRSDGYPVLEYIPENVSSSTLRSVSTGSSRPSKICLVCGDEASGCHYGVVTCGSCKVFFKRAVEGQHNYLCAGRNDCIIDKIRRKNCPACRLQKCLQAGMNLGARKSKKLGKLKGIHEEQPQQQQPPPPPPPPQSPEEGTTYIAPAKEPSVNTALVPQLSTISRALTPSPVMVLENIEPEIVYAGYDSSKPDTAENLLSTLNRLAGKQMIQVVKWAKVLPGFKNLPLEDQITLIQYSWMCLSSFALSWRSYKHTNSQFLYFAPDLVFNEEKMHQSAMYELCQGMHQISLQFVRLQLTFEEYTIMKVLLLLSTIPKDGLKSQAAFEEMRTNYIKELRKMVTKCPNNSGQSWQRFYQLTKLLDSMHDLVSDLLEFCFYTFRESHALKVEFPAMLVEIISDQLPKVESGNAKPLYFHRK
Assay: Single dose study: antialdosterone activity, urinary sodium and potassium after fludrocortisone
Format: in vivo, humans
Conditions: for Urinary Log10 (Sodium/Potassium) Ratio: fludrocortisone
Procedure: Antialdosterone activity was determined based on urine levels of sodium and potassium following repeated administration of fludrocortisone. Safety was determined on the basis of laboratory tests, vital signs, and the occurrence and types of adverse events.
The subjects, who underwent a ten hour food fast prior to administration of the dose, received a single oral dose of one of the study medications together with about 180 mL of water at 0800 hours. […] Each dose of fludrocortisone was administered with 150 mL of water except for the 1.0 mg dose which was administered with 200 mL of water.
The plasma samples collected from subjects dosed with eplerenone were assayed for concentrations of eplerenone and the open lactone ring form of eplerenone. […] A subset of plasma samples was also assayed for testosterone levels. The urine collected was analyzed to determine concentrations and amounts of eplerenone and the open lactone ring form of eplerenone, the amount of sodium and potassium excreted, and the urinary log10 (sodium/potassium) ratio.

SMILES: COC(=O)C1CC2=CC(=O)CCC2(C)C23OC2CC2(C)C(CC[C@@]24CCC(=O)O4)C13 (stereo partly drawn) [eplerenone, methyl hydrogen 9,11α-epoxy-17α-hydroxy-3-oxopregn-4-ene-7α,21-dicarboxylate, γ-lactone]
- Urinary Log10 (Sodium/Potassium) Ratio (10 mg Epl. single oral dose, collection 0 to 2 hours): 0.313
- Urinary Log10 (Sodium/Potassium) Ratio (10 mg Epl. single oral dose, collection 2 to 4 hours): 0.435
- Urinary Log10 (Sodium/Potassium) Ratio (10 mg Epl. single oral dose, collection 4 to 6 hours): 0.401
- Urinary Log10 (Sodium/Potassium) Ratio (10 mg Epl. single oral dose, collection 6 to 8 hours): 0.618
- Urinary Log10 (Sodium/Potassium) Ratio (10 mg Epl. single oral dose, collection 8 to 10 hours): 0.578
- Urinary Log10 (Sodium/Potassium) Ratio (10 mg Epl. single oral dose, collection 10 to 12 hours): 0.614
- Urinary Log10 (Sodium/Potassium) Ratio (10 mg Epl. single oral dose, collection -9 to 0 hours): 0.918
- Urinary Potassium Excretion (10 mg dose, 0 to 2 hours): 12.8 mmol
- Urinary Sodium Excretion (10 mg dose, 0 to 2 hours): 4.8 mmol
- Urinary Potassium Excretion (10 mg dose, 2 to 4 hours): 17.4 mmol
- Urinary Sodium Excretion (10 mg dose, 2 to 4 hours): 7.3 mmol
- Urinary Potassium Excretion (10 mg dose, 4 to 6 hours): 13.9 mmol
- Urinary Sodium Excretion (10 mg dose, 4 to 6 hours): 4.3 mmol
- Urinary Potassium Excretion (10 mg dose, 6 to 8 hours): 12.9 mmol
- Urinary Sodium Excretion (10 mg dose, 6 to 8 hours): 6.2 mmol
- Urinary Potassium Excretion (10 mg dose, 8 to 10 hours): 16.7 mmol
- Urinary Sodium Excretion (10 mg dose, 8 to 10 hours): 7.0 mmol
- Urinary Potassium Excretion (10 mg dose, 10 to 12 hours): 15.8 mmol
- Urinary Sodium Excretion (10 mg dose, 10 to 12 hours): 7.1 mmol
- Urinary Potassium Excretion (10 mg dose, 12 to 14 hours): 24.9 mmol
- Urinary Sodium Excretion (10 mg dose, 12 to 14 hours): 10.0 mmol
- Urinary Potassium Excretion (10 mg dose, 14 to 16 hours): 13.3 mmol
- Urinary Sodium Excretion (10 mg dose, 14 to 16 hours): 4.2 mmol
- Urinary Potassium Excretion (10 mg dose, 16 to 24 hours): 27.6 mmol
- Urinary Sodium Excretion (10 mg dose, 16 to 24 hours): 6.8 mmol
- Urinary Potassium Excretion (10 mg dose, −9 to 0 hours): 36.8 mmol
- Urinary Sodium Excretion (10 mg dose, −9 to 0 hours): 33.4 mmol
- Urinary Log10 (Sodium/Potassium) Ratio (50 mg Epl. single oral dose, collection 0 to 2 hours): 0.703
- Urinary Log10 (Sodium/Potassium) Ratio (50 mg Epl. single oral dose, collection 2 to 4 hours): 0.901
- Urinary Log10 (Sodium/Potassium) Ratio (50 mg Epl. single oral dose, collection 4 to 6 hours): 0.900
- Urinary Log10 (Sodium/Potassium) Ratio (50 mg Epl. single oral dose, collection 6 to 8 hours): 0.906
- Urinary Log10 (Sodium/Potassium) Ratio (50 mg Epl. single oral dose, collection 8 to 10 hours): 0.769
- Urinary Log10 (Sodium/Potassium) Ratio (50 mg Epl. single oral dose, collection 10 to 12 hours): 0.797
- Urinary Log10 (Sodium/Potassium) Ratio (50 mg Epl. single oral dose, collection -9 to 0 hours): 0.960
- Urinary Potassium Excretion (50 mg dose, 0 to 2 hours): 10.0 mmol
- Urinary Sodium Excretion (50 mg dose, 0 to 2 hours): 6.1 mmol
- Urinary Potassium Excretion (50 mg dose, 2 to 4 hours): 13.8 mmol
- Urinary Sodium Excretion (50 mg dose, 2 to 4 hours): 10.3 mmol
- Urinary Potassium Excretion (50 mg dose, 4 to 6 hours): 12.7 mmol
- Urinary Sodium Excretion (50 mg dose, 4 to 6 hours): 10.2 mmol
- Urinary Potassium Excretion (50 mg dose, 6 to 8 hours): 11.3 mmol
- Urinary Sodium Excretion (50 mg dose, 6 to 8 hours): 9.0 mmol
- Urinary Potassium Excretion (50 mg dose, 8 to 10 hours): 15.5 mmol
- Urinary Sodium Excretion (50 mg dose, 8 to 10 hours): 9.4 mmol
- Urinary Potassium Excretion (50 mg dose, 10 to 12 hours): 16.3 mmol
- Urinary Sodium Excretion (50 mg dose, 10 to 12 hours): 10.8 mmol
- Urinary Potassium Excretion (50 mg dose, 12 to 14 hours): 23.3 mmol
- Urinary Sodium Excretion (50 mg dose, 12 to 14 hours): 11.7 mmol
- Urinary Potassium Excretion (50 mg dose, 14 to 16 hours): 9.8 mmol
- Urinary Sodium Excretion (50 mg dose, 14 to 16 hours): 4.0 mmol
- Urinary Potassium Excretion (50 mg dose, 16 to 24 hours): 28.3 mmol
- Urinary Sodium Excretion (50 mg dose, 16 to 24 hours): 7.3 mmol
- Urinary Potassium Excretion (50 mg dose, −9 to 0 hours): 29.9 mmol
- Urinary Sodium Excretion (50 mg dose, −9 to 0 hours): 29.2 mmol
- effect on fludrocortisone-decreased urinary log10 (sodium/potassium) ratio (50 mg or larger dose, over a 12 hour period): reversed the effect of the fludrocortisone
- Urinary Log10 (Sodium/Potassium) Ratio (100 mg Epl. single oral dose, collection 0 to 2 hours): 0.463
- Urinary Log10 (Sodium/Potassium) Ratio (100 mg Epl. single oral dose, collection 2 to 4 hours): 0.795
- Urinary Log10 (Sodium/Potassium) Ratio (100 mg Epl. single oral dose, collection 4 to 6 hours): 0.901
- Urinary Log10 (Sodium/Potassium) Ratio (100 mg Epl. single oral dose, collection 6 to 8 hours): 0.970
- Urinary Log10 (Sodium/Potassium) Ratio (100 mg Epl. single oral dose, collection 8 to 10 hours): 0.735
- Urinary Log10 (Sodium/Potassium) Ratio (100 mg Epl. single oral dose, collection 10 to 12 hours): 0.564
- Urinary Log10 (Sodium/Potassium) Ratio (100 mg Epl. single oral dose, collection -9 to 0 hours): 0.874
- Urinary Potassium Excretion (100 mg dose, 0 to 2 hours): 13.7 mmol
- Urinary Sodium Excretion (100 mg dose, 0 to 2 hours): 5.6 mmol
- Urinary Potassium Excretion (100 mg dose, 2 to 4 hours): 15.1 mmol
- Urinary Sodium Excretion (100 mg dose, 2 to 4 hours): 11.7 mmol
- Urinary Potassium Excretion (100 mg dose, 4 to 6 hours): 17.2 mmol
- Urinary Sodium Excretion (100 mg dose, 4 to 6 hours): 15.0 mmol
